Data: patent US4011322A, “Benzimidazole derivatives and process for the production thereof” (Schering Aktiengesellschaft, priority 1974, dated 1977)

Test system: stripped skin of volunteers (vasoconstriction / hyperemia)
Test: Vasoconstriction test on stripped skin of volunteers (topical ointment)
Type: in vivo, human (volunteers)
Experimental: The anti-inflammatory effectiveness of the novel benzimidazole derivatives can be determined in the conventional vasoconstriction test, as follows:
On the backs of volunteers for the experiment, the stratum corneum was removed by the application and tearing off of an adhesive strip, applied 20 times at the same spot, thus producing a pronounced hyperemia. Within the stripped area, respectively 50 mg. of ointment was applied to marked areas having a size of 4 cm^2, this ointment containing respectively 0.1, 0.01 or 0.001%, respectively, of the compound to be tested or of the reference substance in a water-oil base. […]
To determine the vasoconstriction, which is a representative syndrome of topical anti-inflammatory activity, the color value of the untreated skin and the treated stripped skin is measured and compared with the color value of the normal skin, with the color value of the normal skin being assigned the value 100 and the color value of the untreated stripped skin being assigned the value 0. Minor, medium, and high-grade vasoconstriction are evaluated with values between 0 and 100.
The results of such tests employing compounds of this invention (Compounds III and IV) and the prior art compounds Clemizole (I) and Flucortolone (II) are shown in Table I below.

[1] = 0.01% in ointment, observation time 1 hour
[2] = 0.01% in ointment, observation time 4 hours
[3] = 0.01% in ointment, observation time 8 hours
[4] = 0.1% in ointment, observation time 1 hour
[5] = 0.1% in ointment, observation time 4 hours
[6] = 0.1% in ointment, observation time 8 hours
[7] = 0.001% in ointment, observation time 1 hour
[8] = 0.001% in ointment, observation time 4 hours
[9] = 0.001% in ointment, observation time 8 hours

Row | Compound | vasoconstriction (color value; normal skin = 100, untreated stripped skin = 0) [1] | vasoconstriction (color value; normal skin = 100, untreated stripped skin = 0) [2] | vasoconstriction (color value; normal skin = 100, untreated stripped skin = 0) [3] | vasoconstriction (color value; normal skin = 100, untreated stripped skin = 0) [4] | vasoconstriction (color value; normal skin = 100, untreated stripped skin = 0) [5] | vasoconstriction (color value; normal skin = 100, untreated stripped skin = 0) [6] | vasoconstriction (color value; normal skin = 100, untreated stripped skin = 0) [7] | vasoconstriction (color value; normal skin = 100, untreated stripped skin = 0) [8] | vasoconstriction (color value; normal skin = 100, untreated stripped skin = 0) [9]
1 | Clc1ccc(Cn2c(CN3CCCC3)nc3ccccc32)cc1 [I, 1-4'Chlorobenzyl-2-pyrrolidinomethyl-benzimidazole] | 18 | 31 | 33 | 18 | 35 | 45 |  |  | 
2 | C[C@@H]1C[C@H]2[C@@H]3C[C@H](F)C4=CC(=O)C=C[C@]4(C)[C@H]3[C@@H](O)C[C@]2(C)[C@H]1C(=O)CO [II, 6 α-Fluoro-11β,21-dihydroxy-16α-methyl-1,4-pregnadiene-3,20-dione] | 15 | 65 | 85 | 35 | 75 | 85 | 20 | 50 | 60
3 | CCN1CCN(Cc2nc3ccccc3n2Cc2ccccc2O)CC1 [III, 2-(4-Ethyl-1-piperazinyl)-methyl-1-(2-hydroxybenzyl)-benzimidazole] | 35 | 55 | 55 | 45 | 80 | 85 | 15 | 15 | 20
4 | CCN1CCN(Cc2nc3ccccc3n2Cc2ccc(Cl)cc2)CC1 [IV, 2-(4-Ethyl-1-piperazinyl)-methyl-1-(4-chlorobenzyl)-benzimidazole] | 30 | 85 | 100 |  |  |  | 25 | 65 | 95
